Activity calls are given as the source filed them. No cut-off for these calls is given here.
Experiments:
T-24 [1] = test: Induction of cell cycle arrest in human T24 cells assessed as accumulation of cells at G1 phase at 2 uM incubated for 24 hrs by propidium iodide/RNase A staining based flow cytometry analysis (reference value: 51.71 %); format: functional
T-24 [2] = test: Induction of cell cycle arrest in human T24 cells assessed as accumulation of cells at S phase at 4 uM incubated for 24 hrs by propidium iodide/RNase A staining based flow cytometry analysis (reference value: 42.47 %); format: functional
T-24 [3] = test: Induction of mitochondrial membrane potential dysfunction in human T24 cells assessed as shrinking mitochondria at 2 uM incubated for 24 hrs by TEM analysis; format: functional, cell-based
T-24 [4] = test: Induction of mitochondrial membrane potential dysfunction in human T24 cells assessed as depolarised cells at 4 uM incubated for 24 hrs by JC-1 staining based flow cytometry (reference value: 6.20%); format: functional
[5] = Toxicity in human WI-38 cells assessed as wound closure at 1 uM measured after 24 hrs by fluorescence microscopy based wound healing assay; format: cell-based; conditions: wi-38, 24 h
T-24 [6] = test: Induction of mitochondrial membrane potential dysfunction in human T24 cells assessed as depolarised cells at 2 uM incubated for 24 hrs by JC-1 staining based flow cytometry (reference value: 6.20%); format: functional
T-24 [7] = test: Induction of mitochondrial mediated apoptosis in human T24 cells assessed as upregulation of apaf-1 expression at 2 to 4 uM incubated for 24 hrs by Western blotting analysis; format: functional, cell-based; conditions: dose 2-4 µM
T-24 [8] = test: Induction of apoptosis in human T24 cells assessed as condensation of nuclei at 2 uM by Hoechst33258 staining based fluorescence microscopy; format: functional, cell-based
T-24 [9] = test: Induction of mitochondrial membrane potential dysfunction in human T24 cells assessed as decrease in ATP production at 4 uM; format: functional; parameters: scale not given: the % may be the effect or the level left
T-24 [10] = test: Induction of DNA damage in human T24 cells assessed as increase in gamma H2AX expression at 2 to 4 uM incubated for 24 hrs by Western blot analysis; format: functional, cell-based; conditions: dose 2-4 µM
T-24 [11] = test: Induction of cell cycle arrest in human T24 cells assessed as accumulation of cells at S phase at 2 uM incubated for 24 hrs by propidium iodide/RNase A staining based flow cytometry analysis (reference value: 42.47 %); format: functional
T-24 [12] = test: Induction of apoptosis in human T24 cells assessed as early apoptotic cells at 1 uM incubated for 24 hrs by Annexin-V/PI staining based flow cytometry analysis (reference value: 3.27 %); format: functional
T-24 [13] = test: Induction of apoptosis in human T24 cells assessed as necrotic cells at 0.5 uM incubated for 24 hrs by Annexin-V/PI staining based flow cytometry analysis (reference value: 1.92 %); format: functional
T-24 [14] = test: Induction of apoptosis in human T24 cells assessed as early apoptotic cells at 0.5 uM incubated for 24 hrs by Annexin-V/PI staining based flow cytometry analysis (reference value: 3.27 %); format: functional
T-24 [15] = test: Induction of DNA damage in human T24 cells assessed as DNA strand breakage by measuring comet formation at 0.5 uM incubated for 24 hrs by comet assay; format: functional, cell-based
T-24 [16] = test: Induction of apoptosis in human T24 cells assessed as increase in caspase 3 activity at 0.5 uM (Rvb= 3.1%); format: functional
T-24 [17] = test: Induction of DNA damage in human T24 cells assessed as increase in gamma H2AX phosphorylation at 0.5 uM incubated for 24 hrs by Hoechst33258 staining based immunofluorescence assay; format: functional, cell-based
T-24 [18] = test: Inhibition of colony formation in human T24 cells at 0.01 uM incubated for 24 hrs and measured for 10 days; format: functional, cell-based
T-24 [19] = test: Induction of mitochondrial ROS generation in human T24 cells at 0.5 uM measured after 24 hrs by DCFH-DA staining based confocal microscopy method; format: functional, cell-based
T-24 [20] = test: Potency index, ratio of oxoaporphine IC50 to test compound IC50 for anticancer activity against human T24 cells; format: functional
T-24 [21] = test: Induction of apoptosis in human T24 cells assessed as condensed chromatin at 10 uM by Hoechst33258 staining based fluorescence microscopy; format: functional, cell-based
T-24 [22] = test: Induction of cell cycle arrest in human T24 cells assessed as accumulation of cells at G1 phase at 15 uM incubated for 24 hrs by propidium iodide/RNase A staining based flow cytometry analysis (reference value: 51.71 %); format: functional
T-24 [23] = test: Induction of mitochondrial membrane potential dysfunction in human T24 cells assessed as depolarised cells at 15 uM incubated for 24 hrs by JC-1 staining based flow cytometry (reference value: 6.20%); format: functional
T-24 [24] = test: Induction of mitochondrial membrane potential dysfunction in human T24 cells assessed as decrease in ATP production at 15 uM; format: functional; parameters: scale not given: the % may be the effect or the level left
T-24 [25] = test: Induction of apoptosis in human T24 cells assessed as viable cells at 20 uM incubated for 24 hrs by Annexin-V/PI staining based flow cytometry analysis (reference value: 94.3 %); format: functional; conditions: read-out: Activity
T-24 [26] = test: Induction of apoptosis in human T24 cells assessed as necrotic cells at 15 uM incubated for 24 hrs by Annexin-V/PI staining based flow cytometry analysis (reference value: 1.92 %); format: functional
T-24 [27] = test: Induction of cell cycle arrest in human T24 cells assessed as accumulation of cells at G2/M phase at 10 uM incubated for 24 hrs by propidium iodide/RNase A staining based flow cytometry analysis (reference value: 5.82 %); format: functional
T-24 [28] = test: Induction of mitochondrial ROS generation in human T24 cells at 10 uM measured after 24 hrs by DCFH-DA staining based confocal microscopy method; format: functional, cell-based

## O=C1c2cc([N+](=O)[O-])ccc2-c2ccc([N+](=O)[O-])c3ccnc1c23
T-24 [1]
  Activity: 0.27%
T-24 [2]
  Activity: 70.53%
T-24 [3]
  Activity: Active
T-24 [4]
  Activity: 31.3%
[5]
  Activity: Non-Toxic
T-24 [6]
  Activity: 15.9%
T-24 [7]
  Activity: Active
T-24 [8]
  Activity: Active
T-24 [9]
  Activity: 43.1%
T-24 [10]
  Activity: Active
T-24 [11]
  Activity: 66.71%

## O=C1c2ccccc2-c2ccc([N+](=O)[O-])c3ccnc1c23
T-24 [12]
  Activity: 39.5%
T-24 [13]
  Activity: 1.54%
T-24 [14]
  Activity: 35.3%
T-24 [15]
  Activity: Active
T-24 [16]
  Activity: 30.6%
T-24 [17]
  Activity: Active
T-24 [18]
  inhibition: Active
T-24 [19]
  Activity: Active
T-24 [20]
  Ratio IC50: 19

## O=C1c2ccccc2-c2cccc3ccnc1c23
T-24 [21]
  Activity: Active
T-24 [22]
  Activity: 31.02%
T-24 [23]
  Activity: 25.6%
T-24 [24]
  Activity: 66.2%
T-24 [25]
  viability at 20 µM: 56.2%
T-24 [26]
  Activity: 2.44%
T-24 [27]
  Activity: 13.69%
T-24 [28]
  Activity: Active

— ChEMBL document CHEMBL5131473, “One-pot synthesis of oxoaporphines as potent antitumor agents and investigation of their mechanisms of actions” (Eur J Med Chem, 2022)
